Source: patent publication US20230248702A1, “MICELLE COMPRISING BENZIMIDAZOLE-CARBOHYDRATE CONJUGATE COMPOUND, PREPARATION METHOD THEREOF AND USE THEREOF AS ANTICANCER AGENT OR ANTIVIRAL AGENT COMPRISING THE SAME” (BIOMETRIX TECHNOLOGY INC., priority 2021, published 2023)

Assays:
[1] = tested on: normal lung cell lines MRC-5; experiment: Test for toxicity on normal cell lines (WST-8 cell viability assay); format: cell-based; settings: rating relative to doxorubicin, 0-50 µM, incubated for 24 hours
Description: Normal lung cell lines MRC-5 were distributed by Korean Cell Line Bank (KCLB, Seoul in Korea) and grown using a complete culture medium. Fetal bovine serum (FBS), 0.1 mM MEM nonessential amino acid (NEAA), 2 mM L-glutamine, and 1 % of penicillin-streptomycin were treated with trypsin every two-three days in a humidified cell culture incubator containing 5 % of CO2 at 37° C. by using DMEM and a 10 % culture flask according to guidelines provided by the KCLB, to subculture cells. The culture was incubated until it reached 80-90 % confluence, and the cells continuously moved to the culture flask for a test of inhibition of growth of cancer cell lines.
The normal cell lines (MRC-5) were seeded in 96-well plates at about 7,000 cells per well. […]
After the incubation, the culture medium was thrown away, and cell viability in each well was measured according to an instruction of the manufacturer, using a WST-8 cell viability assay kit (Quanti-MaxTM, BIOMAX).
The analysis used the principle that the dehydrogenase of living cells decomposes tetrazolium salt to generate formazan, and based on this, the living cells were quantitatively evaluated. Reduced formazan dye (formazan salt) is soluble in the cell culture medium, and the amount of formazan (formazan) was measured using the direct proportionality to the number of viable cells.

[2] = tested on: cancer cell lines (pancreatic cancer cell line ASPC-1, lung cancer cell line A549, breast cancer cell line MCF-7, colorectal cancer cell line HCT 116); experiment: Test for inhibition of growth of cancer cell lines (WST-8 cell viability assay); format: cell-based, humans
Description: Pancreatic cancer cell lines ASPC-1, lung cancer cell lines A549, breast cancer cell lines MCF-7, and colorectal cancer cell lines HCT 116 of humans were distributed by Korean Cell Line Bank (KCLB, Seoul in Korea) and grown using culture media. Fetal bovine serum (FBS), 0.1 mM MEM nonessential amino acid (NEAA), 2 mM L-glutamine, and 1 % of penicillin-streptomycin were treated with trypsin every two-three days in a humidified cell culture incubator containing 5 % of CO2 at 37° C. by using DMEM and a 10 % culture flask according to guidelines provided by the KCLB, to subculture cells. […] After 24 hours, each of the nine sorts of compounds in table 2 was added to the well under six concentration conditions and was incubated for 24 hours. After the incubation, the culture medium was thrown away, and cell viability in each well was measured according to an instruction of the manufacturer, using a WST-8 cell viability assay kit (Quanti-MaxTM, BIOMAX). The analysis used the principle that the dehydrogenase of living cells decomposes tetrazolium salt to generate formazan, and based on this, the living cells were quantitatively evaluated. Reduced formazan dye (formazan salt) is soluble in the cell culture medium, and the amount of formazan (formazan) was measured using the direct proportionality to the number of viable cells.

| SMILES | Test for toxicity on normal cell line [1] | Test for inhibition of growth of cancer cell line ([2]; rating relative to doxorubicin, 0-50 µM, incubated for 24 hours) | total number of cancer cells remained within 24 hours ([2]; concentrations of Table 2 (0-50 µM), 24 hours) [%] |
| --- | --- | --- | --- |
| CCCSc1ccc2nc(NC3O[C@H](CO)[C@@H](O)[C@H](O)[C@H]3O)[nH]c2c1 (stereo partly drawn) [Albendazole-glucose conjugate (Al-G), 6-(propylthio)-1H-benzoimidazol-2-aminoglucose] | AAA (an AAA rating denotes no toxicity (1/30 times or less)) | C (a C rating denotes a very weak quality (10 times or more)) |  |
| COc1cccc2c1C(=O)c1c(O)c3c(c(O)c1C2=O)C[C@@](O)(C(=O)CO)C[C@@H]3O[C@H]1C[C@H](N)[C@H](O)[C@H](C)O1 [doxorubicin, reference compound] |  |  | ≥ 70 |
